Activity and MIC data for two compounds are collected here from ChEMBL document CHEMBL3045339, “Synthesis of benzoxazoles, benzothiazoles and benzimidazoles and evaluation of their antifungal, insecticidal and herbicidal activities” (1992).

In brackets after ≈: the same amount, converted by molar mass. Some results are limits rather than exact numbers.

What all share (format): functional
For test [1], the system named is Panonychus citri. Put plainly: Insecticidal activity against Panonychus citri at 200 ppm up to 21 days.
Test [2] concerns Persicaria hydropiper. The test is described as follows: Herbicidal activity against Persicaria hydropiper assessed as disease control at 1000 ppm treated in soil during 15 to 20 days relative to control.
In test [3] the test system is Eleusine indica. Put plainly: Herbicidal activity against Eleusine indica assessed as disease control at 1000 ppm treated in soil during 15 to 20 days relative to control.
Test [4] concerns Echinochloa crus-galli. The test is described as follows: Herbicidal activity against Echinochloa crus-galli (barnyard grass) assessed as disease control at 1000 ppm treated in soil during 15 to 20 days relative to control.
The next test deals with Fusarium fujikuroi. Put plainly: Antifungal activity against Fusarium fujikuroi after 7 days. More on the design: concentration or dose not given beside the values.
For the next test, the system named is Xanthomonas axonopodis. The test is described as follows: Antibacterial activity against Xanthomonas axonopodis after 7 days. More on the design: concentration or dose not given beside the values.
Test [5] deals with Pseudoperonospora cubensis. Put plainly: Antifungal activity against Pseudoperonospora cubensis after 7 days. More on the design: concentration or dose not given beside the values.
Another test has as its system Botrytis cinerea. The test is described as follows: Antifungal activity against Botryotinia fuckeliana after 7 days. More on the design: concentration or dose not given beside the values.
The next test relates to Pyricularia oryzae. Put plainly: Antifungal activity against Magnaporthe oryzae after 7 days. More on the design: concentration or dose not given beside the values.
In the next test the test system is Mycobacterium. The test is described as follows: Antibacterial activity against Mycobacterium ovicum after 48 hr.
Another test concerns Bacillus subtilis. The test is described as follows: Antibacterial activity against Bacillus subtilis after 48 hr.
Another test has as its system Pseudomonas aeruginosa. The test is described as follows: Antibacterial activity against Pseudomonas aeruginosa after 48 hr.
Another test concerns Escherichia coli. The test is described as follows: Antibacterial activity against Escherichia coli after 48 hr.
The next test deals with Staphylococcus aureus. The test is described as follows: Antibacterial activity against Staphylococcus aureus after 48 hr.
A further test deals with Oryza sativa. The test is described as follows: Herbicidal activity against Oryza sativa assessed as disease control at 1000 ppm treated in paddy field during 15 to 20 days relative to control.
Test [6] relates to Panonychus citri. Put plainly: Insecticidal activity against Panonychus citri at 500 ppm up to 21 days.
The test system of another test is Cyperus compressus. The test is described as follows: Herbicidal activity against Cyperus compressus assessed as disease control at 1000 ppm treated in paddy field during 15 to 20 days relative to control.
The subject of test [7] is Echinochloa crus-galli. Put plainly: Herbicidal activity against Echinochloa crus-galli (barnyard grass) assessed as disease control at 1000 ppm treated in paddy field during 15 to 20 days relative to control.
Test [8] deals with Chenopodium album. Put plainly: Herbicidal activity against Chenopodium album assessed as disease control at 1000 ppm treated in foliage during 15 to 20 days relative to control.
In test [9] the test system is Amaranthus viridis. Put plainly: Herbicidal activity against Amaranthus viridis assessed as disease control at 1000 ppm treated in foliage during 15 to 20 days relative to control.
The test system of test [10] is Persicaria hydropiper. The test is described as follows: Herbicidal activity against Persicaria hydropiper assessed as disease control at 1000 ppm treated in foliage during 15 to 20 days relative to control.
The test system of test [11] is Eleusine indica. The test is described as follows: Herbicidal activity against Eleusine indica assessed as disease control at 1000 ppm treated in foliage during 15 to 20 days relative to control.
The test system of test [12] is Echinochloa crus-galli. Put plainly: Herbicidal activity against Echinochloa crus-galli (barnyard grass) assessed as disease control at 1000 ppm treated in foliage during 15 to 20 days relative to control.
Test [13] deals with Amaranthus viridis. The test is described as follows: Herbicidal activity against Amaranthus viridis assessed as disease control at 1000 ppm treated in soil during 15 to 20 days relative to control.
Test [14] deals with Chenopodium album. Put plainly: Herbicidal activity against Chenopodium album assessed as disease control at 1000 ppm treated in soil during 15 to 20 days relative to control.

Consider `OC(c1ccc(Cl)cc1)(c1ccc(Cl)cc1)C(Cl)(Cl)Cl` [DICOFOL], for which the Activity in the test with Panonychus citri [1] was 98.3%.
A word on the MIC: it is the smallest concentration in the dilution series that meets the test's criterion for growth inhibition. On to `Clc1ccc2nc(-c3ccccn3)[nH]c2c1`, for which the Activity with Persicaria hydropiper [2] was less than 39%; in the test with Eleusine indica [3] it was less than 39%; in the test with Echinochloa crus-galli [4], less than 39%; in the test on Fusarium fujikuroi, less than 39%; with Xanthomonas axonopodis it was 60%; in test [5], more than 80%. Besides, the Activity is recorded as more than 80% in the test on Botrytis cinerea; 60% in the test on Pyricularia oryzae; less than 39% with Oryza sativa; 32.5% with Panonychus citri [6]; less than 39% in the test with Cyperus compressus; less than 39% in the test with Echinochloa crus-galli [7]. Besides, the Activity with Chenopodium album [8], in the test with Amaranthus viridis [9], in the test on Persicaria hydropiper [10], in the test with Eleusine indica [11], with Echinochloa crus-galli [12] and in the test on Amaranthus viridis [13] was less than 39% each time. The Activity in the test on Chenopodium album [14] is less than 39%. In addition, the MIC against Mycobacterium turned out to be 50 µg/mL (≈ 218 µM); with Bacillus subtilis, 50 µg/mL (≈ 218 µM); against Pseudomonas aeruginosa, 100 µg/mL (≈ 435 µM); against Escherichia coli, 50 µg/mL (≈ 218 µM); against Staphylococcus aureus, 50 µg/mL (≈ 218 µM).
